Data set [1] relates to low affinity form of PDE 4 (LPDE 4). As to the kind of experiment: PDE 4 catalytic activity assay (low affinity form). In kind it is biochemical, human. As to conditions: HPDE 4 IC50 divided by LPDE 4 IC50.
Experimental: Consequently, inhibition of recombinant PDE 4 catalytic activity primarily reflects the actions of compounds at LPDE 4. Inhibition of PDE 4 catalytic activity can thus be used as an index of the potency of compounds at LPDE 4.
Isolated human monocyte PDE 4 and hrPDE 4 was determined to exist primarily in the low affinity form.
For a further data set, the system named is acid secretion. As to conditions: rats, particularly in combination with an activator of adenylate cyclase such as histamine; cited from earlier work.
For data set [2] the following is noted: human, in vivo; cited from earlier work.
Data set [3] concerns the target T1, high affinity rolipram binding site of PDE 4 (HPDE 4).
T1 construct: Rat brain high speed supernatants were used as a source of protein
Nature of the data set: [3H]-rolipram binding assay (high affinity site). Particulars: competition with 1 nM [3H]-rolipram, rat brain high speed supernatants, 1 hour at 30° C. On the procedure:
Rat brain high speed supernatants were used as a source of protein. […] The assay was run for 1hour at 30° C. The reaction was terminated and bound ligand was separated from free ligand using a Brandel cell harvester. Competition for the high affinity binding site was assessed under conditions that were identical to those used for measuring low affinity PDE activity, expect that [^3H]-cAMP was not present.

A further data set concerns patients with EIA. As to the kind of experiment: Exercise challenge study in patients with EIA. The data set is classed as in vivo, human. The protocol: A randomized, double-blind, placebo-controlled, two-period cross-over study was conducted to assess the efficacy, safety and tolerability of cis-[4-cyano-4-(3-cyclopentyloxy-4-methoxyphenyl)cyclohexan-1-carboxylate] in patients with EIA. 27 patients with EIA were randomized to receive the compound, 10 mg BID immediate release tablet or placebo, for 7 days followed by a 7 day washout and the alternate treatment for 7 days. Exercise challenge tests were performed after a single dose on day 1, and again on day 7 (pre-dose and three hours post-dose).
The patient population consisted of non-smoking men or women, ages 18 to 60 years with EIA such that:
a) their forced expiratory volume in one second (FEV1) was greater than or equal to 70% of predicted normal,
b) the documented fall in FEV1 was greater than or equal to 15% in response to exercise testing at a screening visit, and
c) they were not taking inhaled corticosteroids or other controller medications for asthma.
The Exercise Challenge Protocol was as follows. Patients were exercised on a motorized treadmill for six minutes at target heart rate. Speed and inclination were adjusted to achieve a target heart rate for each patient of 85% of age-adjusted maximum predicted. Patients breathed compressed air (0% humidity at room temperature) during the test through a face mask. Pulmonary function tests (KoKo pneumotach) were performed 1, 5, 10, 15, 20, 30 and 45 minutes after completion of the test and continued thereafter if FEV1 had not returned to within 10% of the baseline.
The primary efficacy variable was the maximum percentage decrease (MPD) in the FEV1 in response to exercise. The results indicated significant improvement in MPD FEV1 after one dose of the compound, from a mean MPD of 32.88% to 23.57%. There was an incremental effect of the compound after 7 days of dosing with further improvement in mean MPD FEV1 to 21.8%. […] See also, Am. J. Resp. Crit. Care Med. 1998:157; A413, incorporated herein in its entirety by reference.

For the compound `OCCN(CCO)c1nc(N2CCCCC2)c2nc(N(CCO)CCO)nc(N3CCCCC3)c2n1` [dipyridamole, 2,2′,2″,2′-[(4,8-dipiperldinopyrimido[5,4-d]pyrmidine-2-6-diyl)dinitrilo]tetraethanol, reference compound], in data set [1], the “High/Low Ratio (IC50 high affinity / IC50 low affinity)” value worked out at 6.25.
As for `COc1ccc(C2CCC(c3nnn[nH]3)C2)cc1OC1CCCC1` (stereo not drawn) [1-(5-tetrazole)-3-(3-cyclopentyloxy-4-methoxyphenyl)cyclopentane], the “High/Low Ratio (IC50 high affinity / IC50 low affinity)” value in data set [1] is reported as 0.0018.
Take `CCOC(=O)C=C1C[C@@H](c2ccc(OC)c(OC3CCCC3)c2)CN1` [(S)-(−)-ethyl [4-(3-cyclopentyloxy-4-methoxyphenyl)pyrrolidine-2-ylidene]acetate]: the “High/Low Ratio (IC50 high affinity / IC50 low affinity)” value in data set [1] is reported as “.98”.
In the case of `COc1ccc(C2CNC(=O)C2)cc1OC1CCCC1` (stereo not drawn) [rolipram], the “effect on acid secretion” value in the data set on acid secretion is “enhance acid secretion”. The “side effects in clinical studies” value in data set [2] is “has psychotropic activity and produces gastrointestinal effects, e.g., pyrosis, nausea and emesis”.
As usually defined, the IC50 is the midpoint of a concentration-inhibition curve. A low value points to higher potency. Turning to `CCCCOc1cc(CC2CNC(=O)N2)ccc1OC` (stereo not drawn) [Ro 20-1724, reference compound], in the data set on acid secretion, the “effect on acid secretion” value was “enhance acid secretion”. This compound gave an IC50 in data set [3] of 190 nM.
Turning to `CCOC(=O)C=C1C[C@H](c2ccc(OC)c(OC3CCCC3)c2)CN1` [(R)-(+)-ethyl [4-(3-cyclopentyloxy-4-methoxyphenyl)pyrrolidine-2-ylidene]acetate], the “High/Low Ratio (IC50 high affinity / IC50 low affinity)” value in data set [1] came out at 2.143.
Turning to `COc1ccc(C2CCN(Cc3ccc(NC(=NC#N)SC)cc3)C2=O)cc1OC1CCCC1` (stereo not drawn) [3-(cyclopentyl-oxy-4-methoxyphenyl)-1-(4-N′-[N2-cyano-S-methyl-isothioureido]benzyl)-2-pyrrolidone], in data set [1], the “High/Low Ratio (IC50 high affinity / IC50 low affinity)” value amounted to 0.30.
Take `COc1ccc(C2(C#N)CCC(C(=O)O)CC2)cc1OC1CCCC1` (stereo not drawn) [cis-[4-cyano-4-(3-cyclopentyloxy-4-methoxyphenyl)cyclohexan-1-carboxylate]]: in the data set on patients with EIA (10 mg BID for 7 days, patients with EIA), the safety and tolerability entry is “safe and well tolerated, with no treatment-related serious adverse experiences or withdrawals”. Moreover, the “effects in humans suffering from EIA” value in the data set on patients with EIA (administered to humans suffering from EIA) is “reduced inflammation, bronchodilation and pulmonary neuromodulation”. In addition, the “mean maximum percentage decrease (MPD) in FEV1 in response to exercise” value in the data set with patients with EIA (after 7 days of dosing, 10 mg BID) is recorded as 21.8%; with patients with EIA (after one dose, 10 mg immediate release tablet, improved from mean MPD of 32.88%), 23.57%. For the same compound, the “patients with a fall in FEV1 of less than or equal to 15% after exercise” value with patients with EIA (after one week of treatment, 10 mg BID) is recorded as 40%.
For `NC(=O)C(=O)NCCc1ccc(OC(F)F)c(OC(F)F)c1` [N-[2-(3,4-bisdifluoromethoxy-phenyl)ethyl]oxamide], the IC50 in data set [3] came out at 400 nM. For the same compound, the “High/Low Ratio (IC50 high affinity / IC50 low affinity)” value in data set [1] worked out at 0.25.
Turning to `CCCCn1c(=O)c2c(ncn2CC(C)=O)n(CCCC)c1=O` [denbufylline, 7-acetonyl, 1,3-dibutyixanthine], the “side effects in clinical studies” value in data set [2] is “may include pyrosis, nausea and emesis”.
For the compound `CC(C)Cn1c(=O)n(C)c(=O)c2[nH]cnc21` [IBMX, reference compound], the “High/Low Ratio (IC50 high affinity / IC50 low affinity)” value in data set [1] was found to be 0.698.
In the case of `COc1ccc(CCNC(=O)C(N)=O)cc1OC1CCCC1` [N-[2-(3-cyclopentyloxy-4-methoxyphenyl)ethyl]oxamide], in data set [1], the “High/Low Ratio (IC50 high affinity / IC50 low affinity)” value came out at 0.013.
Turning to `COc1ccc(C2CN(Cc3ccc(N)cc3)C(=O)N2)cc1OC1CCCC1` (stereo not drawn) [1-(4-aminobenzyl)-4-(3-cyclopentyloxy-4-methoxyphenyl)-2-imidazolidinone], in data set [3], the IC50 turned out to be 100 nM. Besides, the “High/Low Ratio (IC50 high affinity / IC50 low affinity)” value in data set [1] is given as 0.07.

These data come from patent publication US6555576B1, “Method for treating exercise induced asthma” (SmithKline Beecham Corporation, priority 1999, dated 2003).
